Measurements: the supplement of paper PMC4862054

How the values were obtained:
[1] = system: BT-549; test: normalised viability (% of control), CellTiter-Blue; higher = more viable cells (about 100 = DMSO control); conditions: 100 nM; incubation time: 72 h
Protocol: (§1)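 DSRT, CellTiter-Blue viability, 72 h incubation. Signal is normalised to DMSO and benzethonium chloride controls. Value is the normalised response at dose 3.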

[2] = system: MFM-223; test: as above; conditions: 100 nM; incubation time: 72 h
Protocol: as §1

[3] = system: MDA-MB-468; test: as above; conditions: 100 nM; incubation time: 72 h
Protocol: as §1

[4] = system: MDA-MB-231; test: drug sensitivity score (DSS), CellTiter-Blue viability (DSS (AUC-based score)); higher = stronger viability inhibition; extreme values may be limits of the assay; conditions: incubation time: 72 h
Protocol: (§2)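 DSRT with the CellTiter-Blue (resazurin reduction) viability readout, fluorescence 560/590 nm, 72 h incubation. Plates were normalised to DMSO and benzethonium chloride controls. DSS is computed from the area under the fitted dose-response curve (5 or 9 concentrations).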

[5] = system: MFM-223; test: as above; conditions: incubation time: 72 h
Protocol: as §2

[6] = system: BT-549; test: normalised viability (% of control), CellTiter-Blue; higher = more viable cells (about 100 = DMSO control); conditions: incubation time: 72 h
Summary of the method: (§3)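 Each value is normalised viability at a single listed concentration of the series. Breast cancer cell lines in 384-well plates were incubated 72 h with compound and read by CellTiter-Blue fluorescence at 560/590 nm, with vehicle set to 100 and a positive kill control to 0 on every plate.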

[7] = system: MDA-MB-231; test: as above; conditions: incubation time: 72 h
Summary of the method: as §3

[8] = system: Hs578T; test: as above; conditions: incubation time: 72 h
Summary of the method: as §3

[9] = system: HCC1937; test: as above; conditions: incubation time: 72 h
Summary of the method: as §3

[10] = system: HDQ-P1; test: as above; conditions: incubation time: 72 h
Summary of the method: as §3

[11] = system: SK-BR-3; test: as above; conditions: incubation time: 72 h
Summary of the method: as §3

[12] = system: CAL-148; test: as above; conditions: incubation time: 72 h
Summary of the method: as §3

[13] = system: MDA-MB-436; test: as above; conditions: incubation time: 72 h
Summary of the method: as §3

[14] = system: MFM-223; test: as above; conditions: incubation time: 72 h
Summary of the method: as §3

[15] = system: CAL-120; test: as above; conditions: incubation time: 72 h
Summary of the method: as §3

[16] = system: BT-474; test: as above; conditions: incubation time: 72 h
Summary of the method: as §3

[17] = system: MDA-MB-453; test: as above; conditions: incubation time: 72 h
Summary of the method: as §3

[18] = system: HCC1143; test: as above; conditions: incubation time: 72 h
Summary of the method: as §3

[19] = system: MDA-MB-468; test: as above; conditions: incubation time: 72 h
Summary of the method: as §3

[20] = system: HCC1599; test: as above; conditions: incubation time: 72 h
Summary of the method: as §3

[21] = system: CAL-51; test: as above; conditions: incubation time: 72 h
Summary of the method: as §3

[22] = system: DU-4475; test: as above; conditions: incubation time: 72 h
Summary of the method: as §3

[23] = system: CAL-85-1; test: as above; conditions: incubation time: 72 h
Summary of the method: as §3

COc1ccc(-c2cc3c(C)nc(N)nc3n([C@H]3CC[C@H](OCCO)CC3)c2=O)cn1
Conditions | drug sensitivity score | normalised viability [%]
[1] | – | 66.9
[2] | – | 68.8
[3] | – | 77.3
[4] | 19.9 | –
[5] | 19.1 | –

normalised viability [%]
Conditions | 3 nM | 10 nM | 30 nM | 100 nM | 1000 nM | 10000 nM
[6] | – | 86.3 | – | – | 19.1 | 6.84
[7] | – | 84.7 | – | – | 16.7 | 8.35
[8] | – | 96.1 | – | – | 17.9 | 3.2
[9] | – | 68.4 | – | – | 28 | 30.2
[10] | 76.7 | – | 81.6 | 39 | – | –
[11] | – | 82.6 | – | – | 10.6 | 6.34
[12] | 87.6 | – | 93 | 78.6 | – | –
[13] | – | 103 | – | – | 15.8 | 7.22
[14] | – | 92 | – | – | 16 | 7.1
[15] | – | 107 | – | – | 21 | 11.3
[16] | – | 91.8 | – | – | 14.1 | 0.59
[17] | 103 | – | 66.5 | 48.5 | – | –
[18] | – | 111 | – | – | 30.4 | 15
[19] | – | 92.7 | – | – | 21.5 | 6.53
[20] | – | 115 | – | – | 35.1 | 28.2
[21] | 99.7 | – | 89.1 | 59 | – | –
[22] | 109 | – | 96.7 | 89 | – | –
[23] | 102 | – | 89.7 | 84.5 | – | –
